The values that follow come from patent publication US20040228866A1, “Suppressor genes” (Ludwig Institute for Cancer Research, priority 2000, published 2004).

This test concerns Saos-2 cells. Put plainly: Apoptosis by flow cytometry (CD20-gated, sub-G1 DNA content) in transfected Saos-2 cells. In kind it is cell-based. Here is the method: Apoptosis was identified by the expression of the co-transfected cell surface marker CD20, as described in Samuels-Lev et al. (Mol. Cell 8:781-94, 2001, herein incorporated by reference).
The number of apoptotic cells was determined using the methods described in Example 6.
Cells (10^6) were plated 24-48 hours prior to transfection in 10 cm plates. Cells were grown in DMEM supplemented with 10% FCS and transfected with 2 μg of a plasmid expressing CD20 as a transfection marker. Increasing amounts of ASPP1 and ASPP2 were transfected (7.5 μg, 15 μg and 25 μg). 36 hours after the transfection, both attached and floating cells were harvested and analysed using flow cytometry as follows. The transfected cells were gated based on the expression of CD20. The percentage of apoptotic cells was measured by the accumulation of cells with a sub-G1 DNA content derived from at least three individual experiments.
The transfected cells were analyzed by flow cytometry as described in Example 6.
For orientation: In flow cytometry, cells or beads pass a laser one at a time.

Bcl-2: anti-apoptotic Bcl-2 oncoprotein: the “effect on the apoptotic function of wild type p53” value (co-expressed with p53) is listed as “decreased”. The “effect on the enhancement of p53 apoptotic function by ASPP1 and ASPP2” value (co-expressed with p53 and ASPP1 or ASPP2) was “effectively prevented ASPP1 and ASPP2 from enhancing the apoptotic function of p53”. For the same substance, for the setting “transcriptionally inactive, mitochondria-targeted mutant p53, FIG. 9A”, the “effect on apoptosis induced by p53H175-L” value is reported as “failed to decrease or inhibit apoptosis induced by p53H175-L”.
